Test results taken from patent publication US11124490B2, “Autotaxin inhibitors” (UNIVERSITY OF TENNESSEE RESEARCH FOUNDATION, priority 2016, dated 2021).
Where “and” joins values, the source holds several entries; their conditions need not be identical. Identical values can stand only once.

Columns and labels:
human recombinant ATX [1] = molecular target: T1, human recombinant ATX (Homo sapiens (Human), UniProt Q13822); assay: ATX inhibition, hydrolysis of FRET substrate FS-3; type: biochemical; settings: for IC50: 1 μM FS-3, 4 nM human recombinant ATX, 1 hour time point, read-out: IC50 (nM ± SD) vs FS-3
Procedure: (§1) ATX Generation: Human recombinant ATX was expressed as published previously, using Sf9 Spodoptera frugiperda ovary cells (Invitrogen, Carlsbad, Calif.).^13 Suspension cells were grown to a 1 liter quantity at a concentration of 1×10^6 cells/ml in Sf-900 III serum-free medium (Invitrogen) supplemented with 50 U/ml penicillin and 50 μg/ml streptomycin at 27° C. with agitation. Cells were then infected with high-titer baculovirus generated via Bac-to-Bac Baculovirus Expression System (Invitrogen) using the pCMV5 mammalian expression vector containing the C-terminal FLAG-tagged human ATX sequence (a generous gift from Dr. Junken Aoko, ohoku University, Aoba-ku, Sendai, Japan) subcloned into the pFastBacl transfer vector. […] Resultant ATX was then concentrated via centrifugation in Amicon Ultra 30,000 molecular weight cut off filter units (Millipore, Billerica, Mass.) and subsequent buffer exchange into storage buffer comprised of 50 mM Tris, pH 7.4 with 20% (v/v) ethylene glycol. Protein was held at −80° C. for long-term storage.
(§2) ATX Inhibition: ATX activity was assessed via hydrolysis of the synthetic, lipid-like FRET-based substrate FS-3 (Echelon Biosciences, Salt Lake City, Utah) or via hydrolysis of the nucleotide substrate p-nitrophenyl thymidine 5′-monophosphate (pNP-TMP) as described previously.^2 Reaction wells were loaded in 60 μl volumes in triplicate wells of half-area, black-wall 96-well plates in assay buffer consisting of 50 mM Tris, 140 mM NaCl, 5 mM KCl, 1 mM CaCl2, 1 mM MgCl2, […] BSA, pH 8.0. […] Fluorescence was read every 2 minutes for 1 hour at excitation/emission wavelengths of 485/528 nm for FS-3 hydrolysis or 405 nm absorbance for pNP-TMP hydrolysis using a FlexStation 3 microplate reader (Molecular Devices, Sunnyvale, Calif.). Data (relative fluorescence or absorbance) were then recorded as a mean value of the triplicates for each sample versus time. […] In the case of mechanism determination, the linear fluorescence data from time 10 minutes to 30 minutes were then transformed using a carboxyfluorescein standard curve to determine product concentration and plotted separately. Linear trend lines were inserted using Microsoft Excel, the slope of which represent the rates of reaction for each substrate concentration. This reaction rate data for each inhibitor concentration were then plotted against substrate (FS-3) concentration and simultaneously fitted via non-linear regression in the Michaelis-Menten equations for competitive, non-competitive, uncompetitive, and mixed-mode inhibition using GraphPad Prism version 5.0a. Mechanism of inhibition was determined by which curve fit had the best global fit (R^2 value).

human recombinant ATX [2] = molecular target: T1, human recombinant ATX; assay: ATX inhibition, hydrolysis of nucleotide substrate pNP-TMP; type: biochemical; settings: 1 mM pNP-TMP, 4 nM ATX, compound 0 to 1 μM
Procedure: as §1, §2

[3] = test system: A2058 human melanoma cells; assay: In vitro invasion assay (boyden chamber, matrigel); type: cell-based; settings: recombinant ATX plus 1 μM 18:1 LPC, 20 h, read-out: IC50 (nM) in cell invasion assay
Procedure: The boyden chamber assay was used to assess the effect of three of the benzene sulfonamide analogues on cell invasion of A2058 human melanoma cells in vitro. The A2058 cells invade the matrigel layer in an LPA-dependent manner. Therefore, exogenous LPC and recombinant ATX was used as a source of LPA. Firstly, the compounds were screened at 10 μM concentration alongside BMP 22, a potent ATX inhibitor^31. […] Subsequently, dose response curves for compounds 3a, 3b and 14 were generated (FIG. 13B).
In vitro invasion assay—A2058 human melanoma cell line (gift from Dr. Timothy Clair, NCI, National Institutes of Health) was cultured in Dulbecco's modified Eagle's medium (DMEM) supplemented with 10% (V/V) FBS, 100 U/mL penicillin, 100 μg/mL streptomycin and 2 mM L-glutamine (Life Technologies). Cell invasion was performed using the 24-well BD Biocoat™ tumor invasion system (BD Biosciences, 8 μm-pore size). Briefly, the matrigel coating was rehydrated with PBS at 37° C. for 2 h. After removal of PBS, 5×10^4 A2058 cells in serum-free DMEM supplemented with 0.1% BSA were plated to each upper chamber. […] The fluorescent invaded cells were measured using the FLEXstation II plate reader (Molecular Devices) at excitation and emission wavelengths of 485 and 530 nm, respectively.

LPA1 receptor = LPA1 receptor (Homo sapiens (Human), UniProt Q92633); assay: LPA-mediated Ca2+ mobilization, LPA1 RH7777 cells; type: cell-based; settings: for IC50: IC50 of compound in presence of EC50 concentration of LPA 18:1, read-out: EC50 or IC50 (μM), LPA1 RH7777; for Emax (% LPA), LPA1 RH7777: normalized to LPA 18:1 Emax
Chain of LPA1 receptor (Q92633 whole entry): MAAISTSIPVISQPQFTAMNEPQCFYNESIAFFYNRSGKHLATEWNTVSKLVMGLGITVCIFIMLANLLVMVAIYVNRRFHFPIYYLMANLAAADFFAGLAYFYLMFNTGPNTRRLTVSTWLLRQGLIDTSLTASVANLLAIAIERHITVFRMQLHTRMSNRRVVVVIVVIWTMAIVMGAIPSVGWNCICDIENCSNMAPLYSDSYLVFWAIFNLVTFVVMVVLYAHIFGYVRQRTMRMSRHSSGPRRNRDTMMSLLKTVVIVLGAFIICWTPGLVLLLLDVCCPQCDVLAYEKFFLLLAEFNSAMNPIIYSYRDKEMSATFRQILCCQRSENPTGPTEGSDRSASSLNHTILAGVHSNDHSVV
Procedure: Cell Culture: LPA1 and LPA3 RH7777 rat hepatoma cells were generated in-house as described previously^34 and maintained in DMEM supplemented with 10% FBS and 2 mM L-glutamine with 250 μg/ml G418. LPA2 MEF mouse embryonic fibroblast cells were also derived from LPA1 and LPA2 double knockout mouse embryos as described previously^35 and maintained in DMEM supplemented with 10% FBS, 2 mM L-glutamine, 100 U/ml penicillin and 100 μg/ml streptomycin. LPA4 CHO chinese hamster ovary cells were a generous gift from Dr. Takao Shimizu (Tokyo University, Tokyo, Japan) and were maintained in Ham's F12 medium supplemented with 10% FBS, 2 mM L-glutamine and 350 μg/ml G418. LPA5 B103 rate neuroblastoma cells were derived in house via lentiviral transduction of FLAG-tagged LPA5 and puromycin selection as published^36 and maintained in DMEM supplemented with 10% FBS and 0.4 μg/ml puromycin. All cells were maintained at 37° C. with 5% CO2 in a humidified atmosphere.
Calcium Mobilization: As published previously, LPAR activation leads to transient calcium mobilization. […] All cells were plated in triplicate in 96-well, black-wall plates at a density of 5×10^4 cells per well and allowed to adhere overnight. LPA1 and LPA3 RH7777 cells were plated in poly-L-lysine coated plates. LPA5 B103 cells were plated in Matrigel-coated plates. After adherence, cells were serum-deprived in Krebs buffer consisting of 10 mM HEPES, pH 7.4 with 120 mM NaCl; 5 mM KCl; 1.8 mM CaCl2; 0.62 mM MgSO4; 6 mM D-glucose. LPA1 RH7777, LPA3 RH7777 and LPA5 B103 cells were serum-deprived for 4 hours, while LPA2 MEF cells were serum-deprived for 1 hour, and LPA4 CHO cells were not serum-deprived. Fura 2-AM was then loaded for 30 minutes at a concentration of 4.5 μg/ml in Krebs buffer with 0.45% (v/v) Pluronic F-127 (and additionally 0.1% BSA and 2.5 mM Probenicid for LPA4 CHO cells), after which cells were switched to fresh Krebs buffer. […] Fluorescence corresponding to calcium mobilization was immediately monitored upon addition every 3.42 seconds over a span of 70 seconds total at excitation/emission wavelengths of 340/510 and 380/510 nm. […] GraphPad Prism version 5.0a was then used to plot the data and fit non-linear regression curves in a variable slope model in order to determine the pharmacodynamics (EC50 or IC50) of the compounds in Ca^2+ mobilization.

Structure (SMILES)	fold IC50 improvement relative to screening hit 918013 (human recombinant ATX [1])	IC50 (human recombinant ATX [1])	pNP-TMP Inhibition (human recombinant ATX [2])	IC50 [3] [nM]	Mechanism (human recombinant ATX [1]; mechanism of inhibition, FS-3 0 to 10 μM, inhibitor 0, 0.5×IC50 or 2×IC50)	IC50 (LPA1 receptor) [µM]	Emax (% LPA), LPA1 RH7777 (LPA1 receptor) [% LPA]
O=C(Nc1ccc(F)c(F)c1)c1cc(S(=O)(=O)N2CCOCC2)c(Cl)cc1Cl [Compound 3a, 2,4-dichloro-N-(3,4-difluorophenyl)-5-(morpholinosulfonyl)benzamide]	four-fold	31.5 ± 2.11 nM	None	1478 ± 12.3	–	–	–
O=C(Nc1cc(F)c(F)c(F)c1)c1cc(S(=O)(=O)N2CCOCC2)c(Cl)cc1Cl [Compound 3b, 2,4-dichloro-5-(morpholinosulfonyl)-N-(3,4,5-trifluorophenyl)benzamide]	–	–	sparing effects and None	528 ± 13.9	Competitive	9.1	37.99
O=C(Nc1cc(F)c(Cl)c(F)c1)c1cc(S(=O)(=O)N2CCOCC2)c(Cl)cc1Cl [Compound 3f, 2,4-dichloro-N-(4-chloro-3,5-difluorophenyl)-5-(morpholinosulfonyl)benzamide]	–	83 nM and 83.7 nM	None	–	–	3.96	38.58
O=C(Nc1cc(Cl)c(F)c(Cl)c1)c1cc(S(=O)(=O)N2CCOCC2)c(Cl)cc1Cl [Compound 3g, 2,4-dichloro-N-(3,5-dichloro-4-fluorophenyl)-5-(morpholinosulfonyl)benzamide]	–	40.09 ± 0.33 nM	None	–	–	11.9	36.08
